From patent publication US20250136568A1, “FUSED HETEROCYCLIC COMPOUNDS AS PI3KALPHA INHIBITORS” (Nanjing Zenshine Pharmaceuticals Co., Ltd., priority 2021, published 2025)
Like-named read-outs stand apart in the source and are kept apart here.

Legend:
[1] = tested on: PI3Kα H1047R mutation cell line MDA-MB-453; experiment: Cell Proliferation IC50 Assay (CellTiter-Glo), MDA-MB-453; format: cell-based; details: Homo sapiens, read-out: IC50 (μM) MDA-MB-453
Source text: PI3Kα H1047R mutation cell line T-47D and MDA-MB-453, E545K mutation cell line MDA-MB-361 and PI3Kα wide type cell line SK-BR-3 were purchased from Cobioer Biotech (cat. no CBP60397, CBP60386, CBP60383 and CBP60413 respectively). The CellTiter-Glo Direct Cell Proliferation Assay Kit was purchased from Prornega (cat. No. G7573)
For cell proliferation assay in each cell line: • a. Prepare complete medium (R PMI 1640, DMEM or McCoys): Add FBS and appropriate additives according to the information sheet provided by the vendor. Mix gently. • b. Prepare single cell suspension and count the cell numbers and adjust cells to appropriate density. • c. Add 80 μL of cell suspension to 96-well opaque-walled clear bottom plates according to the planned plate layout and place the plates in the CO2 incubator overnight. • d. Prepare intermediate plate: 10 μl of diluted test compounds or staurosporine solution (200×) is added to a 96 deep well plate. Then 390 μl of culture medium without FBS is added to the respective wells. • e. Transfer 20 μL of the solutions from the above intermediate plate to the wells of the plate prepared containing 80 μL of the culture medium and cells. The total dilution is 200 folds. • f. The cells were then incubated at 5% CO2, 37° C. for 72 hours. • g. Equilibrate the plate and its contents to room temperature for approximately 30 minutes. • h. Add 100 μL of CellTiter-Glo reagent to the assay plate • i. Mix contents for 10 minutes on an orbital shaker to induce cell lysis. • j. Allow the plate to incubate at room temperature for 10 minutes to stabilize luminescent signal, • k. Paste the clear bottom with white back seal and record luminescence with Varioskan LUX plate reader.
Inhibition % and IC50 value were calculated by the formula described below: […]

[2] = tested on: PI3Kα wide type cell line SK-BR-3; experiment: Cell Proliferation IC50 Assay (CellTiter-Glo), SK-BR-3; format: cell-based; details: Homo sapiens; SK-BR-3 (PI3Kα wild type), 72 hours, CellTiter-Glo; read-out: IC50 (μM) SK-BR-3
Outline: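 Cells were seeded and left overnight, then exposed to serially diluted compound (200-fold final dilution) for 72 h at 37 °C, 5% CO2. Viability was read by CellTiter-Glo luminescence. Percent inhibition and IC50 were calculated from the signal.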

[3] = MDA-MB-453 (H1047R), 72 hours, CellTiter-Glo

| SMILES | IC50 [1, 3] | IC50 [2] | IC50 ([1]; MDA-MB-453, 72 h) |
| --- | --- | --- | --- |
| Cc1cc(C(C)Nc2ccccc2C(=O)O)c2oc(-c3ccc4cnn(C)c4c3)cc(=O)c2c1 (stereo not shown) [Example 52, 2-((1-(6-methyl-2-(1-methyl-1H-indazol-6-yl)-4-oxo-4H-chromen-8-yl)ethyl)amino)benzoic acid] | 0.78 µM | > 10 µM | – |
| Cc1cc(C(C)Nc2ccccc2C(=O)O)c2oc(-c3ccc4nn(C5COC5)cc4c3)cc(=O)c2c1 (stereo not shown) [Example 56, 2-((1-(6-methyl-2-(2-(oxetan-3-yl)-2H-indazol-5-yl)-4-oxo-4H-chromen-8-yl)ethyl)amino)benzoic acid] | 0.55 µM | > 10 µM | – |
| Cc1cc(C(C)Nc2ccccc2C(=O)O)c2oc(-c3ccc4nn(CCO)cc4c3)cc(=O)c2c1 (stereo not shown) [Example 57, 2-((1-(2-(2-(2-hydroxyethyl)-2H-indazol-5-yl)-6-methyl-4-oxo-4H-chromen-8-yl)ethyl)amino)benzoic acid] | 0.62 µM | > 10 µM | – |
| COCCn1cc2cc(-c3cc(=O)c4cc(C)cc(C(C)Nc5ccccc5C(=O)O)c4o3)ccc2n1 (stereo not shown) [Example 58, 2-((1-(2-(2-(2-methoxyethyl)-211-indazol-5-yl)-6-methyl-4-oxo-4H-chromen-8-yl)ethyl)amino)benzoic acid] | 0.27 µM | > 10 µM | – |
| Cc1cc(C(C)Nc2ccccc2C(=O)O)c2oc(-c3ccc4ncn(C)c4c3)cc(=O)c2c1 (stereo not shown) [Example 60, 2-((1-(6-methyl-2-(1-methyl-1H-benzo[d]imidazol-6-yl)-4-oxo-4H-chromen-8-yl)ethyl)amino)benzoic acid] | 6 µM | > 10 µM | – |
| Cc1cc(C(C)Nc2ccccc2C(=O)O)c2oc(-c3cc4cn(C)nc4cc3C)cc(=O)c2c1 (stereo not shown) [Example 61, 2-((1-(2-(2,6-dimethyl-21-indazol-5-yl)-6-methyl-4-oxo-4H-chromen-8-yl)ethyl)amino)benzoic acid] | 8.48 µM | > 10 µM | – |
| Cc1cc(C(C)Nc2ccccc2C(=O)O)c2oc(-c3ccc4nn(C)cc4c3C)cc(=O)c2c1 (stereo not shown) [Example 62, 2-((1-(2-(2,4-dimethyl-2H-indazol-5-yl)-6-methyl-4-oxo-4H-chromen-8-yl)ethyl)amino)benzoic acid] | 0.47 µM | > 10 µM | – |
| Cc1cc(C(C)Nc2ccccc2C(=O)O)c2oc(-c3ccc(N4CCOCC4=O)cc3)cc(=O)c2c1 (stereo not shown) [Example 64, 2-((1-(6-methyl-4-oxo-2-(4-(3-oxomorpholino)phenyl)-4H-chromen-8-yl)ethyl)amino)benzoic acid] | 1.9 µM | > 10 µM | – |
| CC(=O)N1CCN(c2ccc(-c3cc(=O)c4cc(C)cc(C(C)Nc5ccccc5C(=O)O)c4o3)cc2)CC1 (stereo not shown) [Example 65, 2-((1-(2-(4-(4-acetylpiperazin-1-yl)phenyl)-6-methyl-4-oxo-4H-chromen-8-yl)ethyl)amino)benzoic acid] | 0.21 µM | > 10 µM | – |
| Cc1cc(C(C)Nc2ccccc2C(=O)O)c2oc(-c3ccc(N4CCOCC4C)cc3)cc(=O)c2c1 (stereo not shown) [Example 66, 2-((1-(6-methyl-2-(4-(3-methylmorpholino)phenyl)-4-oxo-4H-chromen-8-yl)ethyl)amino)benzoic acid] | 0.2 µM | > 10 µM | – |
| Cc1cc(C(C)Nc2ccccc2C(=O)O)c2oc(-c3ccc(N4CCOC(C)C4)cc3)cc(=O)c2c1 (stereo not shown) [Example 67, 2-((1-(6-methyl-2-(4-(2-methylmorpholino)phenyl)-4-oxo-4H-chromen-8-yl)ethyl)amino)benzoic acid] | 0.2 µM | > 10 µM | – |
| Cc1cc(C(C)Nc2ccccc2C(=O)O)c2oc(-c3ccc4nn(C)nc4c3)cc(=O)c2c1 (stereo not shown) [Example 69, 2-((1-(6-methyl-2-(2-methyl-2H-benzo[d][1,2,3]triazol-5-yl)-4-oxo-4H-chromen-8-yl)ethyl)amino)benzoic acid] | 1.06 µM | > 10 µM | – |
| Cc1cc(C(C)Nc2ccccc2C(=O)O)c2oc(-c3ccc4nn(C)cc4n3)cc(=O)c2c1 (stereo not shown) [Example 84, 2-((1-(6-methyl-2-(2-methyl-2H-pyrazolo[4,3-b]pyridin-5-yl)-4-oxo-4H-chromen-8-yl)ethyl)amino)benzoic acid] | 0.26 µM | > 10 µM | – |
| Cc1cc(C(C)Nc2ccccc2C(=O)O)c2oc(-c3ccc(N4CCN(C)CC4)cc3)c(C)c(=O)c2c1 (stereo not shown) [Example 90, 2-((1-(3,6-dimethyl-2-(4-(4-methylpiperazin-1-yl)phenyl)-4-oxo-4H-chromen-8-yl)ethyl)amino)benzoic acid] | 0.09 µM | > 10 µM | – |
| Cc1cc(C(C)Nc2ccccc2C(=O)O)c2oc(-c3ccc4nn(C)c(C)c4c3)cc(=O)c2c1 (stereo not shown) [Example 111, 2-((1-(2-(2,3-dimethyl-2H-indazol-5-yl)-6-methyl-4-oxo-4H-chromen-8-yl)ethyl)amino)benzoic acid] | 0.87 µM | > 10 µM | – |
| Cc1cc([C@@H](C)Nc2ccccc2C(=O)O)c2oc(-c3ccc(N4CCN(C5COC5)CC4)cc3)c(C)c(=O)c2c1 [Example 118, (R)-2-((1-(3,6-dimethyl-2-(4-(4-(oxetan-3-yl)piperazin-1-yl)phenyl)-4-oxo-4H-chromen-8-yl)ethyl)amino)benzoic acid] | – | 7.52 µM | 0.14 µM |
| Cc1cc(C(C)Nc2ccccc2C(=O)O)c2oc(-c3ccc4c(=O)n(C)ccc4c3)cc(=O)c2c1 (stereo not shown) [Example 120, 2-((1-(6-methyl-2-(2-methyl-1-oxo-1,2-dihydroisoquinolin-6-yl)-4-oxo-4H-chromen-8-yl)ethyl)amino)benzoic acid] | 1.18 µM | > 10 µM | – |
| Cc1cc(C(C)Nc2ccccc2C(=O)O)c2oc(-c3ccc4c(=O)n(C)ncc4c3)cc(=O)c2c1 (stereo not shown) [Example 122, 2-((1-(6-methyl-2-(2-methyl-1-oxo-1,2-dihydrophthalazin-6-yl)-4-oxo-4H-chromen-8-yl)ethyl)amino)benzoic acid] | 0.56 µM | > 10 µM | – |
| Cc1cc(C(C)Nc2ccccc2C(=O)O)c2oc(C3CCN(c4ccccn4)CC3)c(C)c(=O)c2c1 (stereo not shown) [Example 124, 2-((1-(3,6-dimethyl-4-oxo-2-(1-(pyridin-2-yl)piperidin-4-yl)-4H-chromen-8-yl)ethyl)amino)benzoic acid] | – | > 10 µM | 0.5 µM |
| Cc1cc(C(C)Nc2ccccc2C(=O)O)c2oc(C3CCN(c4cccnc4)CC3)c(C)c(=O)c2c1 (stereo not shown) [Example 125, 2-((1-(3,6-dimethyl-4-oxo-2-(1-(pyridin-3-yl)piperidin-4-yl)-4H-chromen-8-yl)ethyl)amino)benzoic acid] | 0.4 µM | > 10 µM | – |
| Cc1cc(C(C)Nc2ccccc2C(=O)O)c2oc(C3CCN(c4ccncc4)CC3)c(C)c(=O)c2c1 (stereo not shown) [Example 126, 2-((1-(3,6-dimethyl-4-oxo-2-(1-(pyridin-4-yl)piperidin-4-yl)-4H-chromen-8-yl)ethyl)amino)benzoic acid] | 2.46 µM | > 10 µM | – |
| Cc1cc(C(C)Nc2ccccc2C(=O)O)c2oc(-c3ccc(S(C)(=O)=O)cc3)c(C)c(=O)c2c1 (stereo not shown) [Example 127, 2-((1-(3,6-dimethyl-2-(4-(methylsulfonyl)phenyl)-4-oxo-4H-chromen-8-yl)ethyl)amino)benzoic acid] | > 10 µM | > 10 µM | – |
| Cc1cc(C(C)Nc2ccccc2C(=O)O)c2oc(-c3ccc(CN4CCOCC4)cc3)c(C)c(=O)c2c1 (stereo not shown) [Example 128, 2-((1-(3,6-dimethyl-2-(4-(morpholinomethyl)phenyl)-4-oxo-4H-chromen-8-yl)ethyl)amino)benzoic acid] | 0.16 µM | > 10 µM | – |
| Cc1cc(C(C)Nc2ccccc2C(=O)O)c2oc(-c3ccc(C(=O)N4CCOCC4)cc3)c(C)c(=O)c2c1 (stereo not shown) [Example 129, 2-((1-(3,6-dimethyl-2-(4-(morpholine-4-carbonyl)phenyl)-4-oxo-4H-chromen-8-yl)ethyl)amino)benzoic acid] | 0.26 µM | > 10 µM | – |
| Cc1cc(C(C)Nc2ccccc2C(=O)O)c2oc(C3CCC(c4ccccc4)CC3)c(C)c(=O)c2c1 (stereo not shown) [Example 130, 2-((1-(3,6-dimethyl-4-oxo-2-(4-phenylcyclohexyl)-411-chromen-8-yl)ethyl)amino)benzoic acid] | > 10 µM | > 10 µM | – |
| Cc1cc(C(C)Nc2ccccc2C(=O)O)c2oc(-c3ccc(N4CCS(=O)(=O)CC4)cc3)c(C)c(=O)c2c1 (stereo not shown) [Example 132, 2-((1-(2-(4-(1,1-dioxidothiomorpholino)phenyl)-3,6-dimethyl-4-oxo-4H-chromen-8-yl)ethyl)amino)benzoic acid] | 0.27 µM | > 10 µM | – |
